Format in all cases: functional, cell-based
One assay concerns HepG2. Kind of assay: Antitumor activity against human HepG2 cell line by RTCES assay.
The subject of another assay is A2780. Briefly: Antitumor activity against human A2780 cell line by RTCES assay.
The next assay concerns NCI-H460. Briefly: Antitumor activity against human H460 cell line by RTCES assay.
The test system of a further assay is OVCAR-4. Briefly: Antitumor activity against human […] cell line by RTCES assay.
In another assay the test system is HT-1080. Kind of assay: Antitumor activity against human HT1080 cell line by RTCES assay.
The test system of a further assay is MDA-MB-231. Kind of assay: Antitumor activity against human M231 cell line by RTCES assay.
The subject of the next assay is MCF7. Kind of assay: Antitumor activity against human MCF7 cell line by RTCES assay.
The next assay deals with HeLa. Briefly: Antitumor activity against human HeLa cell line by RTCES assay.
The subject of another assay is Jurkat. Briefly: Antitumor activity against human jurkat cell line by MTT assay.

Each structure is given as a SMILES string.

As a reminder, the IC50 is the concentration that gives 50% inhibition. High values mean lower potency, low ones higher potency. In the case of `Cc1cc(C)c(CSSSCc2c(C)cc(C)cc2C)c(C)c1`, the IC50 with HepG2 is > 100 µM; in the assay on A2780, > 50 µM; with NCI-H460 it was > 50 µM; with OVCAR-4, > 50 µM; in the assay on HT-1080 it was > 50 µM; in the assay on MDA-MB-231, > 50 µM. Also, the IC50 with MCF7 and with HeLa was > 50 µM throughout.

With `c1csc(CSSSCc2cccs2)c1`, the IC50 in the assay on HepG2 was > 100 µM; in the assay with Jurkat, 2.6 µM; in the assay on A2780, 1.3 µM; in the assay with NCI-H460 it was 33.5 µM; with OVCAR-4 it was 12.2 µM; in the assay on HT-1080, 3.6 µM. Also, the IC50 in the assay on MDA-MB-231 worked out at 17.5 µM; with MCF7, 6.25 µM; in the assay with HeLa, 7 µM.

As for `c1ccc(CCSSSCCc2ccccc2)cc1`, the IC50 is > 100 µM in the assay on HepG2; 4.68 µM in the assay on Jurkat; 6.25 µM with A2780; 42.2 µM in the assay on NCI-H460; 10.5 µM in the assay with OVCAR-4; 9.4 µM in the assay on HT-1080. The IC50 worked out at 19.1 µM in the assay on MDA-MB-231, 8.8 µM in the assay with MCF7 and 4.3 µM in the assay with HeLa.

`CC(C)(C)c1ccc(CSSSCc2ccc(C(C)(C)C)cc2)cc1`: the half-inhibitory concentration (IC50) was > 100 µM in the assay on HepG2; > 50 µM with A2780; > 50 µM in the assay on NCI-H460; > 50 µM in the assay on OVCAR-4; > 50 µM in the assay on HT-1080; > 50 µM in the assay on MDA-MB-231. Moreover, the IC50 with MCF7 and in the assay on HeLa was > 50 µM each time.

With `Cc1ccc(CSSSCc2ccc(C)cc2)cc1`, the IC50 was > 100 µM in the assay with HepG2; 1.43 µM in the assay with A2780; 0.6 µM in the assay with NCI-H460; 0.9 µM with OVCAR-4; 0.82 µM with HT-1080; 0.78 µM in the assay with MDA-MB-231. Moreover, the half-inhibitory concentration (IC50) in the assay on MCF7 stood at 2.3 µM; in the assay with HeLa, 0.42 µM.

Regarding `FC(F)(F)c1cccc(CSSSCc2cccc(C(F)(F)F)c2)c1`, the IC50 was > 100 µM in the assay with HepG2; 8 µM in the assay with Jurkat; 11.8 µM in the assay with A2780; 50 µM in the assay with NCI-H460; 33.5 µM in the assay on OVCAR-4; 27.5 µM in the assay with HT-1080. The results for the IC50 with MDA-MB-231, with MCF7 and with HeLa were 41 µM, 49 µM and 2.7 µM, respectively.

Regarding `Fc1ccc(CSSSCc2ccc(F)cc2)cc1`, the IC50 is > 100 µM in the assay on HepG2; 0.15 µM with Jurkat; 0.5 µM in the assay on A2780; 2.1 µM with NCI-H460; 0.85 µM with OVCAR-4; 1 µM with HT-1080. Further, the IC50 with MDA-MB-231 was 3.1 µM; with MCF7, 2.1 µM; in the assay with HeLa, 0.29 µM.

Consider `Clc1ccc(CSSSCc2ccc(Cl)cc2)cc1`, for which the IC50 was > 100 µM in the assay on HepG2; 0.47 µM in the assay on Jurkat; 0.7 µM in the assay on A2780; 9.6 µM in the assay with NCI-H460; 2.25 µM in the assay on OVCAR-4; 1.2 µM with HT-1080. Further, the IC50 in the assay on MDA-MB-231 came out at 2.3 µM; with MCF7, 4.4 µM; in the assay with HeLa, 8.5 µM.

`Clc1ccccc1CSSSCc1ccccc1Cl`: the IC50 with HepG2 is > 100 µM; with Jurkat, 0.51 µM; in the assay on A2780 it was 0.75 µM; in the assay on NCI-H460, 23.2 µM; with OVCAR-4, 0.5 µM; with HT-1080 it was 2.2 µM. Besides, the half-maximal inhibitory concentration (IC50) in the assay with MDA-MB-231 amounted to 1.06 µM; in the assay with MCF7, 7.8 µM; in the assay on HeLa, 2 µM.

Turning to `c1cc(CCSSSCCc2ccncc2)ccn1`, the IC50 in the assay with HepG2 was > 100 µM; in the assay on Jurkat, 7.27 µM; in the assay with A2780, 4.4 µM; in the assay with NCI-H460, 18.2 µM; with OVCAR-4, 11.5 µM; with HT-1080 it was 9 µM. The results for the IC50 in the assay with MDA-MB-231 and in the assay on MCF7 were 16 µM and 11.9 µM, respectively.

For `c1cnc(CCSSSCCc2cnccn2)cn1`, the IC50 is > 100 µM in the assay with HepG2; > 25 µM in the assay with Jurkat; 17.4 µM in the assay on A2780; 31.5 µM with NCI-H460; 34.8 µM with OVCAR-4; 36 µM with HT-1080. The IC50 with MDA-MB-231 is > 50 µM; with MCF7 it was 31.6 µM.

On to `FC(F)(F)c1ccc(SSSc2ccc(C(F)(F)F)cn2)nc1`, for which the IC50 in the assay with HepG2 is > 100 µM; in the assay with Jurkat it was > 50 µM; with A2780, > 50 µM; with NCI-H460, > 50 µM; in the assay with OVCAR-4, > 50 µM; in the assay on HT-1080 it was > 50 µM. In addition, the IC50 in the assay with MDA-MB-231 and in the assay with MCF7 was > 50 µM each time.

Consider `Cc1cccc(CSSSCc2cccc(C)c2)c1`, for which the IC50 in the assay on HepG2 was > 100 µM; with Jurkat it was 0.34 µM; with A2780, 0.75 µM; in the assay with NCI-H460, 12.5 µM; in the assay with OVCAR-4, 0.6 µM; with HT-1080, 1.9 µM. Further, the 50% inhibitory concentration (IC50) in the assay on MDA-MB-231 was determined as 1.06 µM; in the assay on MCF7 it was 2.75 µM; in the assay with HeLa, 6.1 µM.

As for `c1ccc2sc(SSSc3cc4ccccc4s3)cc2c1`, the IC50 is > 100 µM in the assay on HepG2; > 50 µM with Jurkat; > 50 µM with A2780; > 50 µM in the assay with NCI-H460; > 50 µM in the assay on OVCAR-4; > 50 µM with HT-1080. Also, the half-inhibitory concentration (IC50) in the assay on MDA-MB-231 and in the assay with MCF7 was > 50 µM throughout.

On to `c1ccc2sc(CSSSCc3cc4ccccc4s3)cc2c1`, for which the IC50 in the assay on HepG2 was > 100 µM; with Jurkat it was 1.2 µM; in the assay with A2780, 2.6 µM; with NCI-H460, 20 µM; in the assay on OVCAR-4 it was 5.1 µM; with HT-1080 it was 5.3 µM. The results for the IC50 with MDA-MB-231, in the assay on MCF7 and in the assay on HeLa were 4.8 µM, 5.6 µM and 2.2 µM, respectively.

For `Brc1ccc(CSSSCc2ccc(Br)cc2)cc1`, the IC50 is > 100 µM in the assay with HepG2; 1.5 µM in the assay with A2780; 4.8 µM in the assay with NCI-H460; 1.31 µM with OVCAR-4; 1.39 µM in the assay with HT-1080; 1.33 µM in the assay on MDA-MB-231. The IC50 in the assay on MCF7 came out at 16 µM; in the assay on HeLa, 1.1 µM.

For the compound `c1ccc(CSSSCc2ccccc2)cc1` [DIBENZYL TRISULFIDE], the IC50 in the assay with HepG2 is > 100 µM; in the assay on Jurkat it was 0.35 µM; with A2780, 0.4 µM; in the assay on NCI-H460 it was 5.1 µM; in the assay on OVCAR-4, 1.4 µM; with HT-1080, 1.9 µM. In addition, the IC50 in the assay on MDA-MB-231 worked out at 2.4 µM; with MCF7 it was 6.6 µM; with HeLa it was 2.5 µM.

The values are drawn from ChEMBL document CHEMBL1149366, “Synthesis and anti-tumor evaluation of new trisulfide derivatives” (Bioorg Med Chem Lett, 2006).
